Each compound was assayed on human bronchial epithelial cells, CFTR corrector, plate reader (assay: rescue of ΔF508 CFTR function, airway epithelium – human bronchial epithelial cells, plate reader, cherry-pick, two tests, dose response (AID 743267)). Conditions: measured here: test 1 replicate run.

**Q.** How did the AC50 turn out when `O=C(Cc1ccccc1)N1CC(=O)N2[C@H](CO)[C@@H](c3ccc(-c4ccccc4)cc3)[C@@H]2C1` was run?
**A.** 24.6 µM

**Q.** How did the AC50 turn out when `CCS(=O)(=O)N1CC(=O)N2[C@H](CO)[C@@H](c3ccc(C#CCC(C)C)cc3)[C@@H]2C1` was run?
**A.** 0.0676 µM

**Q.** `COC(=O)C[C@@H]1CC[C@@H]2[C@H](COc3ccc(NC(=O)c4ccc(C(F)(F)F)cc4)cc3C(=O)N2C)O1` was tested. Which AC50 did it give?
**A.** 19.2 µM

Same assay, conditions: measured here: test 2 replicate run

**Q.** How did the AC50 turn out when `COC(=O)c1ccc(C(=O)NC2CCCc3c2cnn3-c2ccc(C)c(C)c2)cc1` (stereo not given) was run?
**A.** 1.02 µM

**Q.** How did the AC50 turn out when `O=C(c1cccc(S(=O)(=O)N2CCOCC2)c1)N1CCCC(C(F)(F)F)C1` (stereo not given) was run?
**A.** 39.2 µM

**Q.** For `CC(=O)Nc1ccc2cc3ccc(NC(C)=O)cc3nc2c1`, which AC50 is on record?
**A.** 18.1 µM

**Q.** For `CC(C)Nc1ccc(Nc2ccnc3cc4ccccc4cc23)cc1`, which AC50 is on record?
**A.** 7.34 µM

**Q.** How did the AC50 turn out when `Clc1cccc(-c2ccc(C=Nc3ccc(N4CCOCC4)cc3)o2)c1Cl` was run?
**A.** > 50 µM

**Q.** Which AC50 does the source give for `Cc1cc(C(=O)N/N=C/c2ccc3c(c2)OCO3)c2ccccc2n1` here?
**A.** 3.76 µM

**Q.** For `C/C(=N\NC(=O)c1c(Cl)c(C)nn1C)c1ccc(NC(=O)C2CCC2)cc1`, which AC50 is on record?
**A.** 1.1 µM

**Q.** Which AC50 does the source give for `O=C(NCCCN1CCOCC1)c1cc(S(=O)(=O)N2CCOCC2)c(Cl)cc1Cl` here?
**A.** > 50 µM

**Q.** With `CCOC1=C2CN(S(=O)(=O)c3ccc(C)cc3)CC[C@@H]2N(S(=O)(=O)c2ccc(C)cc2)[C@H](c2ccccc2)C1` as the compound, how does the AC50 read?
**A.** 4.47 µM

**Q.** Which AC50 does the source give for `O=c1c(O)c(-c2cccs2)oc2ccc(Cl)cc12` here?
**A.** 6.12 µM

**Q.** Which AC50 does the source give for `N#Cc1c(-c2ccc(F)cc2)c(-c2ccc(F)cc2)nn(CCO)c1=O` here?
**A.** 2.57 µM

**Q.** Which AC50 does the source give for `O=C(c1ccc(Br)cc1)c1cc([N+](=O)[O-])ccc1N1CCOCC1` here?
**A.** 1.69 µM

**Q.** How did the AC50 turn out when `Cn1cc(C(=O)OCC2CCN(CCNS(C)(=O)=O)CC2)c2ccccc21` was run?
**A.** > 50 µM

**Q.** Which AC50 does the source give for `O=Nc1ccc(O)c2ncccc12` here?
**A.** 3.57 µM

**Q.** `COc1ccc(-c2cc(NC=O)c3ncc(-c4ccc(OC)c(OC)c4)n3c2)cc1` was tested. Which AC50 did it give?
**A.** 22.3 µM

**Q.** With `CCCCn1c(CN2CCN(c3cccc(Cl)c3)CC2)nc2c1c(=O)[nH]c(=O)n2C` as the compound, how does the AC50 read?
**A.** 4.31 µM

**Q.** How did the AC50 turn out when `C=C1C(=O)O[C@@H]2C[C@@H](C)[C@@H]3C=CC(=O)[C@@]3(C)[C@@H](O)[C@H]12` was run?
**A.** 0.989 µM

**Q.** Which AC50 does the source give for `COc1ccc(-c2cc(C(F)F)n3ncc(C(=O)N4CCc5ccccc54)c3n2)cc1` here?
**A.** 16.1 µM

**Q.** Which AC50 does the source give for `C=CC(C)(C)c1[nH]cnc1/C=C1\NC(=O)C(C(C)C)NC1=O` (stereo not given) here?
**A.** 40.2 µM

**Q.** For `COc1ccc(NC(=O)c2nc(C)c(C3(C)CC(c4ccccc4)=NO3)s2)cc1` (stereo not given), which AC50 is on record?
**A.** 3.49 µM

**Q.** How did the AC50 turn out when `O=S1(=O)c2ccc(Br)cc2N2CCC[C@H]2CN1Cc1ccccc1` was run?
**A.** 1.77 µM

**Q.** `COc1ccc2[nH]c(C(=O)N/N=C/c3ccc(O)cc3O)cc2c1` was tested. Which AC50 did it give?
**A.** 4.83 µM

**Q.** `COc1ccc(S(=O)(=O)Nc2cc3c(cc2C(C)=O)OCO3)cc1` was tested. Which AC50 did it give?
**A.** 13.9 µM

**Q.** `COC(=O)c1ccc(/C=C/c2c(-c3ccc(OC)cc3)oc3ccc(N4CCOCC4)cc23)cc1` was tested. Which AC50 did it give?
**A.** 16 µM

**Q.** Which AC50 does the source give for `COc1nc(C)nc(NC(=O)NS(=O)(=O)c2ccccc2Cl)n1` here?
**A.** > 50 µM

**Q.** How did the AC50 turn out when `N#C/C(=C\c1ccccn1)c1nc2ccccc2s1` was run?
**A.** 24.2 µM

**Q.** With `Clc1ccc(SCc2cc(N3CCOCC3)nc(-c3ccccn3)n2)cc1` as the compound, how does the AC50 read?
**A.** 4.5 µM

**Q.** How did the AC50 turn out when `COc1cc(C(=O)Nc2ccc(C)cc2)c2ccccc2n1` was run?
**A.** 1.26 µM

**Q.** `COc1ccc(/C=N/NC(=O)c2cccnc2)cc1CSc1ccccn1` was tested. Which AC50 did it give?
**A.** 28.2 µM

**Q.** How did the AC50 turn out when `COc1ccc(C2c3ccc4ccccc4c3Oc3ncn(CCCO)c(=N)c32)cc1OC` (stereo not given) was run?
**A.** 25.5 µM

**Q.** With `N=C1/C(=C/c2cccn2CCOc2ccccc2)C(=O)N=C2SC=C(c3ccccc3)N12` as the compound, how does the AC50 read?
**A.** 10.8 µM

**Q.** How did the AC50 turn out when `CCc1c(C)nc2ncnn2c1NCCc1ccc(OC)cc1` was run?
**A.** 34.6 µM

**Q.** Which AC50 does the source give for `Cc1ccc(OCC(=O)Nc2ccc3c(c2)ncn3C)cc1` here?
**A.** > 50 µM

**Q.** With `COc1ccc(N2CCc3c(C)nc4c(OC)cc(OC)cc4c32)cc1` as the compound, how does the AC50 read?
**A.** > 50 µM

**Q.** `CC[n+]1c(-c2ccccc2)c2cc(N)ccc2c2ccc(N)cc21` was tested. Which AC50 did it give?
**A.** 7.74 µM

**Q.** For `Nc1ccc(-c2c3ccc(=O)cc-3oc3cc(O)ccc23)cc1C(=O)O`, which AC50 is on record?
**A.** 7.85 µM

**Q.** How did the AC50 turn out when `CN(C)S(=O)(=O)c1ccc2c(c1)/C(=C/c1cc3c([nH]1)CCCC3)C(=O)N2` was run?
**A.** 6.59 µM

**Q.** With `Cn1cccc1/C=C1\SC(=Nc2ccccc2)NC1=O` as the compound, how does the AC50 read?
**A.** 2.89 µM

**Q.** For `Cc1cc(N/N=C/c2ccccc2O)c2ccccc2n1`, which AC50 is on record?
**A.** 21.1 µM

**Q.** `O=[N+]([O-])c1ccc(/C=C/C2=NN(c3ccccc3)C(c3ccco3)C2)o1` (stereo not given) was tested. Which AC50 did it give?
**A.** 18.1 µM

**Q.** For `COc1ccc(NCC(=O)n2c(C)c(C)c3ccccc32)cc1`, which AC50 is on record?
**A.** 5.59 µM

**Q.** Which AC50 does the source give for `Nc1c2ccccc2nc2ccccc12` here?
**A.** 2.62 µM

**Q.** With `COc1ccc2c(c1OC)OCC2C` (stereo not given) as the compound, how does the AC50 read?
**A.** 30.2 µM

**Q.** Which AC50 does the source give for `CC(=O)O[C@H]1C(=O)[C@]2(C)[C@H]([C@H](OC(=O)c3ccccc3)[C@]3(O)C[C@H](OC(=O)[C@H](O)[C@@H](NC(=O)c4ccccc4)c4ccccc4)C(C)=C1C3(C)C)[C@]1(OC(C)=O)CO[C@@H]1C[C@@H]2O` here?
**A.** 0.339 µM

**Q.** How did the AC50 turn out when `CN(C)/C=C1\C=C2C(=O)c3ccccc3N2C1=O` was run?
**A.** 5.5 µM

**Q.** `COc1ccc([C@H]2CC(=O)C=C(c3c(OC)cccc3OC)C2)cc1` was tested. Which AC50 did it give?
**A.** 6.28 µM

**Q.** Which AC50 does the source give for `CC(Sc1nc2ccccc2c(=O)n1C)C(=O)Nc1ccc2c(c1)OCCO2` (stereo not given) here?
**A.** > 50 µM

**Q.** Which AC50 does the source give for `O=C1C=C(NCCc2cc(Br)c(O)c(Br)c2)C(=O)c2ncccc21` here?
**A.** 3.33 µM

**Q.** `COc1cc(Nc2c3c(nc4ccccc24)CCC3)cc(OC)c1OC` was tested. Which AC50 did it give?
**A.** 1.97 µM

**Q.** How did the AC50 turn out when `CC(=O)c1cccc(-c2ccnc3c2CC(C(=O)NCc2ccco2)O3)c1` (stereo not given) was run?
**A.** 2.01 µM

**Q.** `Cc1nc(/N=C(\N)NC(=O)NC2CCCCC2)nc2ccccc12` was tested. Which AC50 did it give?
**A.** 2.76 µM

**Q.** Which AC50 does the source give for `CN(C)CCNC(=O)c1ccc(Cl)c2cc3ccccc3nc12` here?
**A.** 5.35 µM

**Q.** Which AC50 does the source give for `CCOC1=C2[C@@H](CN(S(=O)(=O)c3ccc(C)cc3)[C@H]2c2ccc(Cl)cc2)[C@H]2C(=O)N(c3ccccc3)C(=O)[C@H]2C1` here?
**A.** > 50 µM

**Q.** For `N#CC(C#N)=C1C=C2C=C(N3CCCCCC3)CCC2CC1` (stereo not given), which AC50 is on record?
**A.** 0.239 µM

**Q.** `COc1ccccc1C(=O)NC(=S)/C=C1/N(C)c2ccccc2C1(C)C` was tested. Which AC50 did it give?
**A.** > 50 µM

**Q.** How did the AC50 turn out when `COc1ccc2[nH]c(C(=O)N/N=C/c3ccc(OC)c(O)c3)cc2c1` was run?
**A.** 0.85 µM

**Q.** How did the AC50 turn out when `CCCC(=O)Nc1nc2ccc(NC(=O)c3c(F)c(F)c(OC)c(F)c3F)cc2s1` was run?
**A.** 1.13 µM

**Q.** `Cn1cc(C(=O)N/N=C/c2ccc3c(c2)OCO3)c2ccccc21` was tested. Which AC50 did it give?
**A.** 9.88 µM

**Q.** For `CC(=O)c1cccc(Nc2c3c(nc4ccccc24)CCC3)c1`, which AC50 is on record?
**A.** 2.69 µM

**Q.** For `CCOC(=O)c1ccc(N2CCOCC2)c(NC(=O)c2c(-c3ccccc3)noc2C)c1`, which AC50 is on record?
**A.** 4.89 µM

**Q.** Which AC50 does the source give for `CC(=NNC(=S)Nc1ccc(C)cc1)c1ccccn1` here?
**A.** 0.499 µM

**Q.** `CCN(CC)CCn1c2ccccc2c2nc3ccccc3nc21` was tested. Which AC50 did it give?
**A.** 11.3 µM

**Q.** With `CCOc1ccc(NC(=O)c2cc(OC)nc3ccccc23)cc1` as the compound, how does the AC50 read?
**A.** 1.7 µM

**Q.** `CCOC(=O)CSC1=C(C#N)C(c2ccc(C)s2)CC(=O)N1` (stereo not given) was tested. Which AC50 did it give?
**A.** 5.6 µM

**Q.** Which AC50 does the source give for `CO/N=C\CC(=O)Nc1ccc(Cl)cc1Cl` here?
**A.** 30.9 µM

**Q.** `COc1ccccc1N1CC(C(=O)Nc2ccc(S(=O)(=O)N3CCCC3)cc2)CC1=O` (stereo not given) was tested. Which AC50 did it give?
**A.** 10.6 µM

**Q.** How did the AC50 turn out when `COc1ccc(CNS(=O)(=O)c2cc(-c3cc(C)no3)ccc2C(C)C)cc1` was run?
**A.** 2.16 µM
